# Source: patent US12441732B2, “Potassium salt crystal form B of phosphodiesterase type 5 inhibitor, and preparation method and use therefor” (Guangzhou Huazhen Pharmaceutical Co., Ltd, priority 2019, dated 2025)
# Read-outs that look alike come from different tables or passages of the source.
# Assays:
# [1] = Dynamic vapor sorption (DVS) hygroscopicity test; assay type: physicochemical
# Protocol: Dynamic vapor adsorption (DVS) experiments were performed at 25° C. on a DVS Intrinsic instrument from SMS (Surface Measurement Systems) to test hygroscopicity of the potassium salt anhydrous crystal form B prepared in Embodiment 1. The test sample was first dried at 0% relative humidity (RH) to remove the adsorbed solvent or water, and then the test was started with a target RH of 0-95%.
# [2] = Pharmacokinetic experiment in rats after gavage; assay type: in vivo; conditions: male SD rats, gavage 2 mg·kg^−1
# Protocol: After 6 healthy male SD rats were fasted and drank water freely for 12 h, the rats was administered by gavage with the potassium salt crystal form B prepared in Embodiment 1 at 2 mg·kg^−1, and blood was taken from the Bulbus oculi venous plexus at 0.2 h, 0.5 h, 1 h, 1.5 h, 2 h, 4 h, 6 h and 8 h after administration. A solution of acetonitrile:water (1:1) was added, and centrifuging was conducted to take the supernatant for chromatographic analysis, at conditions: a chromatographic column: Thermo Fisher Hypersil gold column (3 μm, 20 mm×2.1 mm), an injection volume of 10 μL, a flow rate of 0.3 mL/min, a column temperature of 40° C., a mobile phase of water (1% formic acid) and methanol, gradient elution: methanol 10% (0 min); 10% (1 min); 90% (4 min); 90% (8 min); 10% (9 min), and with mass spectrometry conditions: multiple reaction monitoring (MRM), electrospray ionization (ESI), retention time (Dwell Time) of 200 ms, detection ion m/z 448.0-347.8. The data of blood drug concentration was analyzed with Winnolin6.3 software to obtain the pharmacokinetic parameters, thereby forming the mean blood drug concentration-time curve, as shown in FIG. 19.
# [3] = Dynamic solubility test in water, SGF, FaSSIF, FeSSIF at 37° C.; assay type: physicochemical; conditions: for solubility at 1 h / solubility at 4 h / solubility at 24 h: read-out: solubility (S)
# UUO model mice = assay: Unilateral ureteral obstruction mouse model (UUO model) of renal fibrosis; assay type: in vivo, C57BL/6 mice; conditions: 5 mg·kg^−1·d^−1 gavage, 7 days
# From the text: Fifteen male C57BL/6 mice were adaptively fed for one week and randomly divided into two groups: a Sham group (a sham-operation group) including 5 mice and a surgical modeling group including 10 mice. Surgical method: the abdominal cavities of the mice in the sham-operation group were opened under anesthesia to free the left ureter without ligation, and then their abdomens were closed and sutured; the left ureters of the mice in the modeling group were ligated under anesthesia. The mice in the modeling group were further randomly divided into two groups: a UUO group (a model group) and a treatment group of the potassium salt crystal form B of WYQ (5 mg/kg), 5 mice in each group.
# The first gavage administration was started 2 hours after the operation.
# (2) treatment group of the potassium salt crystal form B of WYQ: the potassium salt crystal form B of WYQ was diluted into a 1 mg/ml solution with normal saline and administered by gavage at the dose of 5 mg·kg^−1·d^−1; and
# administered once a day for consecutive 7 days.
# After 7 days of drug administration, all the mice were sacrificed. The abdominal cavity was opened and the left and right kidney tissues were peeled off, caring to maintain the integrity of the kidneys. The kidneys were taken out and quickly transferred to pre-cooled PBS, and the kidneys were cut for different assays. The kidney was divided into four parts with a scalpel, and the dorsal side of the kidney was fixed in 4% paraformaldehyde for making paraffin sections. Morphological changes of kidney tissues were observed by HE staining and Masson staining, and changes of expression of fibrosis marker proteins in kidney tissues were observed by immunohistochemistry.
compound,measurement,setting,value
CCCCOC(=O)[N-]S(=O)(=O)c1cccc(-c2nc3c(CCC)nn(C)c3c(=O)[nH]2)c1.[K+] [potassium salt crystal form B],crystal form before and after the DVS test (XRPD),"[1]; DVS 0-95% RH, 25° C.",did not change
same,change in mass (water adsorption amount),"[1]; DVS, 25° C./80% RH",0.6%
same,hygroscopicity,"[1]; DVS, 25° C./80% RH",slight hygroscopicity
same,time at which the peak drug concentration was reached,[2],0.63 ± 0.12 h
same,AUC(0-t),"[2]; rat, blood, po, read-out: AUC(0-4) within 8 h after administration",639 ± 72.4 ng·h/mL
same,Cmax,"[2]; rat, blood, po, read-out: maximum drug concentration (Cmax)",334 ± 23.7 ng/mL
same,half-life,"[2]; rat, blood, po, read-out: oral half-life (t112) (converted)",138 ± 16.2 min
same,AUC(0-inf),"[2]; rat, blood, po, read-out: total area under the mean blood drug concentration-time curve AUC0-∞",650 ± 70.8 ng·h/mL
same,crystal form change after XRPD assay (FC),"[3]; FaSSIF, 1 h",yes
same,pH,"[3]; FaSSIF, 1 h",6.8
same,crystal form change after XRPD assay (FC),"[3]; FaSSIF, 4 h",yes
same,pH,"[3]; FaSSIF, 4 h",6.8
same,crystal form change after XRPD assay (FC),"[3]; FaSSIF, 24 h",yes
same,pH,"[3]; FaSSIF, 24 h",6.8
same,crystal form change after XRPD assay (FC),"[3]; FeSSIF, 1 h",yes
same,pH,"[3]; FeSSIF, 1 h",5.5
same,crystal form change after XRPD assay (FC),"[3]; FeSSIF, 4 h",yes
same,pH,"[3]; FeSSIF, 4 h",5.5
same,crystal form change after XRPD assay (FC),"[3]; FeSSIF, 24 h",yes
same,pH,"[3]; FeSSIF, 24 h",5.5
same,crystal form change after XRPD assay (FC),"[3]; SGF, 1 h",yes
same,pH,"[3]; SGF, 1 h",7.5
same,crystal form change after XRPD assay (FC),"[3]; SGF, 4 h",yes
same,pH,"[3]; SGF, 4 h",7.3
same,crystal form change after XRPD assay (FC),"[3]; SGF, 24 h",yes
same,pH,"[3]; SGF, 24 h",7.7
same,solubility at 1 h,"[3]; fasted-state simulated intestinal fluid (FaSSIF), thermodynamic from solid, FaSSIF, 1 h",10700 µg/mL
same,solubility at 4 h,"[3]; fasted-state simulated intestinal fluid (FaSSIF), thermodynamic from solid, FaSSIF, 4 h",9500 µg/mL
same,solubility at 24 h,"[3]; fasted-state simulated intestinal fluid (FaSSIF), thermodynamic from solid, FaSSIF, 24 h",9800 µg/mL
same,solubility at 1 h,"[3]; fed-state simulated intestinal fluid (FeSSIF), thermodynamic from solid, FeSSIF, 1 h",400 µg/mL
same,solubility at 4 h,"[3]; fed-state simulated intestinal fluid (FeSSIF), thermodynamic from solid, FeSSIF, 4 h",430 µg/mL
same,solubility at 24 h,"[3]; fed-state simulated intestinal fluid (FeSSIF), thermodynamic from solid, FeSSIF, 24 h",430 µg/mL
same,solubility at 1 h,"[3]; simulated gastric fluid (SGF), simulated gastric fluid, thermodynamic from solid, SGF, 1 h",6800 µg/mL
same,solubility at 4 h,"[3]; simulated gastric fluid (SGF), simulated gastric fluid, thermodynamic from solid, SGF, 4 h",7000 µg/mL
same,solubility at 24 h,"[3]; simulated gastric fluid (SGF), simulated gastric fluid, thermodynamic from solid, SGF, 24 h",7700 µg/mL
same,solubility at 1 h,"[3]; thermodynamic from solid, water, 1 h",12500 µg/mL
same,solubility at 4 h,"[3]; thermodynamic from solid, water, 4 h",13100 µg/mL
same,solubility at 24 h,"[3]; thermodynamic from solid, water, 24 h",12900 µg/mL
same,solubility,"[3]; thermodynamic from solid, water, read-out: solubility in water (the highest)",≤ 12.9 mg/mL
same,crystal form change after XRPD assay (FC),"[3]; water, 1 h",weak
same,pH,"[3]; water, 1 h",7.6
same,crystal form change after XRPD assay (FC),"[3]; water, 4 h",weak
same,pH,"[3]; water, 4 h",7.4
same,crystal form change after XRPD assay (FC),"[3]; water, 24 h",weak
same,pH,"[3]; water, 24 h",7.4
same,FN1 protein expression level in kidney tissue (immunohistochemistry),UUO model mice,significantly reduced
same,fibrosis area in the renal fibrosis lesions vs UUO model group,UUO model mice,significantly decrease
same,proliferation of renal interstitial collagen fibers,UUO model mice,reduced
same,inflammatory cell infiltration in the kidney,UUO model mice; HE staining,significantly reduced
